Experimental data: patent US8691945B2, “Antimicrobial peptides” (Singapore Health Services Pte Ltd., priority 2006, dated 2014)
Where no end group is shown, it is not given here. The star is where a group is joined. Acm = CC(=O)NC*

Assays:
[1] = Molecular hydrophobicity by RP-HPLC-MS retention time, C-terminus analogs; assay type: physicochemical; details: 1 mg/ml; gradient 2-15.5% in 30 mins then 15.5-31% in 3 mins of eluent B (ACN)
Protocol: The overall molecular hydrophobicity of the C-terminus hBD3 analogs were measured by RP-HPLC-MS in terms of retention time at 1 mg/ml (Table 4 and FIG. 14). RP-HPLC is an approach that is commonly employed for such comparisons of peptides or amino acid side chains among antibacterial peptides. Since the stationary phase of C18-modified silica is hydrophobic and the mobile phase (water-acetonitrile) is hydrophilic, longer retention times should be correlated with higher hydrophobicity. The measured order for the molecular hydrophobicity of the peptides is as follows: W2>F2>L2>I2>Y2>V2>C2>H2.

[2] = tested on: Pseudomonas aeruginosa ATCC 27853; experiment: Antimicrobial assay, bacteria growth in liquid broth with serially diluted peptides; assay type: cell-based; details: P aeruginosa, ATCC27853; for vLD50: concentration of peptide at which 50% of the viable cells are killed
Protocol: (§1) The bacteria assayed included Escherichia coli ATCC 25922, Staphylococcus aureus ATCC 25923, Pseudomonas aeruginosa ATCC 27853, Bacillus cereus NCTC 2599. Sterile flat-bottom, 96-well tissue culture plates (92096, TPP) was used for assay. The inner surface of microplate cover was treated with 0.05% Triton X-100 in 20% ethanol to prevent condensation of water droplets. Growth kinetics in 96-well microplates was monitored (as turbidity) with the Tecan Genios Plus microplate reader using software Magellan v5.03 and 620-nm filter. Seed culture was monitored on Pharmacia Biotech Ultrospec 2000 UV/Visible spectrophotometer using 600-nm wavelength. Antibacterial activities of the analogs and wild-type hBD3 were determined for E. coli, B. cereus, S. aureus and P. aeruginosa by measuring bacteria growth in liquid broth in the presence of the serially diluted peptides. The LD50 is the concentration of peptide at which 50% of the viable cells are killed.
(§2) The bacteria were grown to mid-logarithmic phase in Mueller-Hinton Broth (MHB) from overnight plate culture. The cell suspension was diluted to OD 0.1 (600 nm, Pharmacia Biotech Ultropec 2000 UV/Visible spectrophotometer) in mixture of 10 mM Pot Phos buffer/MHB (equal volume (PMH). This cell suspension gave a concentration of 10^7 CFU/ml. Colony count was done for confirmation. A 10-fold dilution series of this suspension ranging from 10^7 to 10^1 CFU/ml was made in PMH (in sextuplicate for Staphylococcus aureus ATCC 25923 and Bacillus cereus NCTC 2599; in quadruplicate for Escherichia coli ATCC 25922 and in triplicate for Pseudomonas aeruginosa ATCC 27853). The final volume per well was 200 ul. For negative control well, 200 ul of uninoculated PMH was added.
(§3) LD50, LD90, LD99 and LD99.9 of wild-type hBD3 and its linear analogs were determined against two Gram-negative (E. Coli and P. aeruginosa) and two Gram-positive (B. cereus, S. aureus) (Table 3). See also FIGS. 7(A, B, C and D).

[3] = tested on: Bacillus cereus NCTC 2599; experiment: as above; assay type: cell-based; details: B cereus, NCTC2599; for vLD50: concentration of peptide at which 50% of the viable cells are killed
Protocol: as §1, §2, §3

[4] = tested on: Escherichia coli ATCC 25922; experiment: as above; assay type: cell-based; details: E coli, ATCC25922; for vLD50: concentration of peptide at which 50% of the viable cells are killed
Protocol: as §1, §2, §3

[5] = tested on: Staphylococcus aureus ATCC 25923; experiment: as above; assay type: cell-based; details: Staph aureus, ATCC25923; for vLD50: concentration of peptide at which 50% of the viable cells are killed
Protocol: as §1, §2, §3

[6] = Molecular hydrophobicity by HPLC-MS retention time, full-length analogs; assay type: physicochemical; design: unit: min; details: average of three tries, one value per charged fragment
Protocol: Molecular hydrophobicity of peptides was measured by HPLC-MS at the same experimental conditions, e.g., the same peptide concentration (500 or 100 μg/ml), loading (5 μl) and flow rate of 0.2 ml/min in the same gradient 18-38% of eluant A in 32 min and relatively compared in term of retention time (Rt) of product peak.
In comparison with native hBD3, this series of linear analogs of hBD3 with full-length and 11 net positive charge are structurally homogenous as they are designed and synthesized only by uniform replacement of six bridging cysteine residues in hBD3 with other six residues with different hydrophobicity, e.g., A, S, C(Acm), F, Y and W. These linear analogs provide a well-defined model for testing the effect of overall hydrophobicity, second structure and linearity/or constraint imposed by three disulfide bridges on antibacterial, cytotoxicity and hemolytic activities. We have measured the relative molecular hydrophobicity by HPLC-MS in term of retention time (tR) at 500 ug/ml and 100 ug/ml (Table 2) and overall hydrophobicity were calculated based on the hydrophobicity scale of Wilmley and White and Hopp-Woods Scale, respectively. The change trend of overall hydrophobicity, which is calculated based on two different scale, generally fits well, and the HPLC result matches the calculations very well. The general order for the relative molecular hydrophobicity of peptides is as following: W6>F6>Y6>native hBD3>A6>S6>C(Acm)6. […] In the following sections, we will discuss the effect of overall hydrophobicity of peptide on biological activities.

[7] = tested on: E. coli, B. cereus, S. aureus and P. aeruginosa; experiment: Antimicrobial assay, statements pooled over the four pathogens; assay type: cell-based; details: in comparison with hBD3
Protocol: as §1
The bacteria were grown to mid-logarithmic phase in Mueller-Hinton Broth (MHB) from overnight plate culture. […]
LD50, LD90, LD99 and LD99.9 of wild-type hBD3 and its linear analogs were determined against two Gram-negative (E. Coli and P. aeruginosa) and two Gram-positive (B. cereus, S. aureus) (Table 3). […]

Row | Substance | Overall hydrophobicity in terms of ACN % of peak [1] [%] | Overall hydrophobicity in terms of Retention time (UV peak) [1] [min] | vLD90 [2] [µg/mL] | vLD99 [2] [µg/mL] | vLD99.9 [2] [µg/mL] | vLD50 [2] [µg/mL] | vLD90 [3] [µg/mL] | vLD99 [3] [µg/mL] | vLD99.9 [3] [µg/mL] | vLD50 [3] [µg/mL] | vLD90 [4] [µg/mL] | vLD99 [4] [µg/mL] | vLD99.9 [4] [µg/mL] | vLD50 [4] [µg/mL] | vLD90 [5] [µg/mL] | vLD99 [5] [µg/mL] | vLD99.9 [5] [µg/mL] | vLD50 [5] [µg/mL] | further results
1 | RGRKFFRRKK (10 aa hBD3 derived peptide (C terminus), C replaced with F) [Peptide F2, 10-residue C-terminus fragment analog of hBD3] | 14.78 | 28.41 |  |  |  |  |  |  |  |  |  |  |  |  |  |  |  |  | 
2 | RGRKIIRRKK (10 aa hBD3 derived peptide (C terminus), C replaced with I) [Peptide I2, 10-residue C-terminus fragment analog of hBD3] | 11.96 | 22.13 |  |  |  |  |  |  |  |  |  |  |  |  |  |  |  |  | 
3 | GIINTLQKYYCRVRGGRCAVLSCLPKEEQIGKCSTRGRKCCRRKK (disulfide (positions not given here); also: three disulfide bonds, pairing not given here; listed as Homo sapiens) [whbd3, wild type human β-defensin 3 with three disulfide bonds, used as control, reference compound] |  |  | 5.7 | 11.4 | 12.4 | 2.7 | 5.8 | 6.2 | 6.2 | 3.9 | 11.8 | 12.4 | 12.5 | 9.3 | 10.7 | 12.2 | 12.5 | 5.5 | Relative hydrophobicity in term of retention time (Rt) in HPLC-MS, Average ([6]; 100 ug/ml, listed as Wild-type hBD3, fragment m/z 860.2): 24.28; Relative hydrophobicity in term of retention time (Rt) in HPLC-MS, Average ([6]; 100 ug/ml, listed as Wild-type hBD3, fragment m/z 1032.2): 24.29; Relative hydrophobicity in term of retention time (Rt) in HPLC-MS, Average ([6]; 500 ug/ml, listed as Wild-type hBD3, fragment m/z 860.2): 23.24; Relative hydrophobicity in term of retention time (Rt) in HPLC-MS, Average ([6]; 500 ug/ml, listed as Wild-type hBD3, fragment m/z 1032.2): 23.28
4 | GIINTLQKYYC(Acm)RVRGGRC(Acm)AVLSC(Acm)LPKEEQIGKC(Acm)STRGRKC(Acm)C(Acm)RRKK-OH [C(Acm)6, GIINTLQKYY C(Acm)6RVRGGR C(Acm)6AVLS C(Acm)6LPKEEQIGK C(Acm)6STRGRK C(Acm)6C(Acm)6RRKK] |  |  | 21.7 | 24.7 | 25 | 11.2 | 28.3 | 47.8 | 49.8 | 19.6 | 23.8 | 24.9 | 42 | 18.7 | 46.8 | 91 | >100 | 25 | antibacterial potency in words [7]: relatively less potency; Relative hydrophobicity in term of retention time (Rt) in HPLC-MS, Average ([6]; 100 ug/ml): 20.94; Relative hydrophobicity in term of retention time (Rt) in HPLC-MS, Average ([6]; 500 ug/ml, fragment m/z 799.3): 20.12; Relative hydrophobicity in term of retention time (Rt) in HPLC-MS, Average ([6]; 500 ug/ml, fragment m/z 932.4): 20.15; Relative hydrophobicity in term of retention time (Rt) in HPLC-MS, Average ([6]; 500 ug/ml, fragment m/z 1118.8): 20.11
5 | RGRKC(Acm)C(Acm)RRKK [Peptide C2, 10-residue C-terminus fragment analog of hBD3] | 9.67 | 17.05 |  |  |  |  |  |  |  |  |  |  |  |  |  |  |  |  | 
6 | RGRKHHRRKK (10 aa hBD3 derived peptide (C terminus), C replaced with H) [Peptide H2, 10-residue C-terminus fragment analog of hBD3] | 7.15 | 11.45 |  |  |  |  |  |  |  |  |  |  |  |  |  |  |  |  | 
